Counter-ions that a name gives are not always drawn. Values belong to the molecule of their own block, whether it stands above or below them.
Legend:
[1] = system: hippocampal inositol phosphate; assay: In vivo tissue inositol phosphate signaling pathway activation, hippocampus; parameters: species or system Long Evans Hooded rats; conditions: rat, Compound 3 1 mg/kg; for effect on increase in hippocampal inositol phosphate caused by Compound 3: antagonist 0.03 mg/kg
Experimental: (§1) Experimental compounds or drug substances were administered using standard techniques to Long Evans Hooded rats weighing 225 to 350 grams, and which had been pretreated with a subcutaneous injection of lithium chloride at a suitable dose between 3 and 10 mmoles per kg. At suitable times the animals were briefly anesthetized using 5% isoflurane and euthanized by decapitation. The brains and submaxillary salivary glands were rapidly dissected out, and the hippocampuses were dissected from the brains. The dissected tissues were homogenized in a suitable volume of ice-cold phosphate-buffered saline containing 10 mM lithium chloride, pH7.4, using a tissue homogenizer, and used immediately or frozen in aliquots at −80 deg C. for future use. The concentration of inositol-1-phosphate was determined in the homogenates using the IPOne TR-FRET assay (CisBio cat no 621PAPEB), following the manufacturer's instruction

[2] = system: anesthetized rats; assay: Salivation after iontophoretic transdermal co-delivery of agonist and antagonist; assay type: in vivo, Long Evans Hooded rats; conditions: anesthetized rat, one patch with 1 mg Compound 3 plus 0.01 mg antagonist
Experimental: Experimental compounds and drug substances were delivered transdermally in rats using iontophoresis as follows. The fur was shaved from the backs of Long Evans Hooded rats weighing 225 to 325 grams, using electric clippers. Experimental compounds and drug substances were formulated at suitable concentrations an aqueous mixture of the following composition:
The polyvinyl alcohol/water was heated to 95 deg C. until it became clear, then the other constituents were added and mixed well. The mixture was introduced into suitable molds containing a disc-shaped cavity 2.2 cm diameter and 2.2 mm deep. Molds may be fabricated using two glass sheets separated by a silicone rubber sheet with suitable sized cavities and filling ports cut-outs. The molds were subject to 3 freeze-thaw cycles at −80 deg C. and 20 deg C. until a firm cryogel was obtained. The gels were separated from the molds and trimmed into a circular shape. The gel was placed in a silicone rubber casing with one face in contact with a circular silver foil anodic electrode (22 mm dia/250 microns thick), and the assembly was placed on the shaved skin of the rat such that the other face was in contact with the skin on one side of the back of the rat. The rubber casing formed a seal over and around the gel/electrode assembly. […] This was placed on the other side of the shaved back of the rat, the edges of the gel discs being about 20 mm apart at their nearest point. A DC voltage was applied across the two patches from a constant-current DC power supply and the voltage adjusted to obtain the desired current, such that the skin of the animal completed the electrical circuit.
The devices were placed on shaved backs of anesthetized rats and salivation was measured.
(§2) The animals were placed slightly head-down on an inclined, heated ramp. Rectal temperature was monitored using a thermocouple and the temperature of the heating pad was adjusted manually to maintain normal body temperature. Saliva was collected from the mouth by absorption onto pre-weighed slips of filter paper. The filter paper was changed periodically and the amount of saliva was measured by weighing the filter paper slips

[3] = system: salivary gland inositol phosphate; assay: In vivo tissue inositol phosphate signaling pathway activation, salivary gland; parameters: species or system Long Evans Hooded rats; conditions: rat; for block of increase in salivary gland inositol phosphate caused by Compound 3: Compound 3 1 mg/kg; for inhibition of salivary gland inositol phosphate response to MCD-386: MCD-386 50 mg/kg, antagonist 0.3 mg/kg (FIG. 7)
Experimental: as §1

[4] = Blood and brain concentrations (rats), oral gavage; assay type: in vivo, Long-Evans Hooded rats; conditions: rat, 10 mg/kg po, 1 hr, relative to MCD-386 = 1.00
Experimental: Long-Evans Hooded rats (Charles River: male, 250-350 g) were dosed with solutions of test compounds in PBS by oral gavage. At the desired time after dosing, the animals were anesthetized with isoflurane, and then euthanized by cervical dislocation. Blood was obtained by cardiac puncture, transferred to a 1.5 mL microcentrifuge tube containing 15U Heparin, and the plasma recovered after centrifugation. Brains were dissected, weighed, immediately chilled to 4° C., and homogenized using a PowerGen 125 homogenizer in five volumes of ice-cold 2% formic acid. Proteins were precipitated from plasma and brain homogenate with two and five volumes respectively of ice-cold 2% formic acid and clarified by centrifugation. The supernatant was ultra-filtered by centrifugation through a 3K MWCO spin column (Pall Life Sciences), following the manufacturer's instructions. The concentration of compound in the ultra-filtrate was subjected to reverse-phase liquid chromatography using a 150×2.1 mm Agilent C8 reverse-phase column on a Shimadzu Prominence LC, eluting the compounds with a gradient of 2% to 50% of acetonitrile+0.1% formic acid for compound MI-50,382, or an isocratic flow of 2% acetonitrile+0.1% formic acid for the rest of the compounds listed. The concentration of the compound in the column effluent was measured using an Applied Biosystems API-3200 triple quadrupole mass spectrometer equipped with an electrospray sample injection system. The counts of the characteristic parent and product ions of each test compound were converted to concentration units by comparison with a standard calibration curve.

[5] = Metabolites in serum and urine of dosed rats (LC-MS); assay type: in vivo; conditions: rat serum or urine, 10 mg/kg po
Experimental: Oxadiazoles disclosed herein as well as other oxadiazoles were investigated to determine the formation of metabolites. Animals were dosed, blood taken, serum prepared, serum proteins precipitated and ultrafiltrates prepared as described in Example 6. In separate experiments, urine was collected from rats for 16-24 hours after dosing, using standard metabolic cages. The urine container and collected urine were maintained at 4° C. Urine was lyophilized, taken back into water. The uftrafiltrate was prepared by adding formic acid to a final concentration of 1% to the urine samples, then filtered through a 0.2 um nylon membrane. The ultrafiltrate was subjected to LC-MS analysis. Instead of measuring the product ions in Q3, manual Q1 scans of the liquid chromatograph were undertaken, seeking parent ions of potential metabolites of the compounds. The criteria for identifying metabolites were as follows: (1) the ion should be present in the sera or urines of dosed rats, but not in sera or urines from non-dosed rats (2) the ion should be identifiable as a metabolic derivative of the dosed compound (e.g. loss of a functional chemical moiety, addition of a hydroxyl group or a glucuronic acid moiety, etc). Metabolites were determined not to be present if no compound meeting the above criteria could be detected in serum or urine.

[6] = PAMPA test, Example 34
[7] = target: T1, human muscarinic M1 receptors (Homo sapiens, UniProt P11229); assay: IP production in A9L cells with human M1 receptors (IPOne TR-FRET), Example 28; assay type: cell-based; conditions: for huM1/A9L Smax: percentage of maximal stimulation by carbachol; for huM1/A9L ED50 relative to CCh*: potency relative to carbachol at its EC50, semi-quantitative
T1 construct: host or cells: A9L cells
T1 sequence (P11229 1-460): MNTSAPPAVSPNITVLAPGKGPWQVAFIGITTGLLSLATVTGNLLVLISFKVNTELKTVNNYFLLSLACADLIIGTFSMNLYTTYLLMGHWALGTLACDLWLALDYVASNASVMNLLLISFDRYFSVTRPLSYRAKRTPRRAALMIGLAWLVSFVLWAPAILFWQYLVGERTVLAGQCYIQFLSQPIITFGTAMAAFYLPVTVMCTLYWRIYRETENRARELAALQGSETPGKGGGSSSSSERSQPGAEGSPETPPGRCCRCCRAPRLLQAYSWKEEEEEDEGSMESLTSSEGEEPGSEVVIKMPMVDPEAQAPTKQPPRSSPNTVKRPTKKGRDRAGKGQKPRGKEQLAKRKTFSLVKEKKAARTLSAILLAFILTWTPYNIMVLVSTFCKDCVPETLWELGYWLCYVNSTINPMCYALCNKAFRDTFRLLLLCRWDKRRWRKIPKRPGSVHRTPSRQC
Experimental: (§3) Muscarinic M1 and M3 agonist activity was evaluated by measuring the stimulation of inositol phosphate (IP) production in the presence of lithium chloride from A9L cells transfected with expression plasmids containing human muscarinic M1 and M3 receptors, respectively. The cell lines were a gift from Professor W Messer, and the methods were as described in Tejada F R et al. J. Med. Chem. 2006; 49: 7518-31 except that the assay was scaled down to run in 384 well plates, and IP was measured in the cell lysates using the non-isotopic IPOne TR-FRET assay (CIS-BIO, Inc).
(§4) Cells were grown to 90% confluence in 384 well hi-base plates (Greiner Bio-One), compounds were added at suitable concentrations in growth medium containing 10 mM LiCl, buffered with an extra 10 mM HEPES (pH7.4), and incubated for 60 minutes at 37° C. Cells were lysed and assayed for IP following the manufacturer's instructions.
(§5) The value for a full agonist is 100%, while partial agonists give values below 100%.

[8] = target: T2, human muscarinic M3 receptors (Homo sapiens, UniProt P20309); assay: IP production in A9L cells with human M3 receptors (IPOne TR-FRET), Example 28; assay type: cell-based; conditions: for huM3/A9L Smax: percentage of maximal stimulation by carbachol; for huM3/A9L ED50 relative to CCh*: potency relative to carbachol at its EC50, semi-quantitative
T2 construct: host or cells: A9L cells
T2 sequence (P20309 whole entry): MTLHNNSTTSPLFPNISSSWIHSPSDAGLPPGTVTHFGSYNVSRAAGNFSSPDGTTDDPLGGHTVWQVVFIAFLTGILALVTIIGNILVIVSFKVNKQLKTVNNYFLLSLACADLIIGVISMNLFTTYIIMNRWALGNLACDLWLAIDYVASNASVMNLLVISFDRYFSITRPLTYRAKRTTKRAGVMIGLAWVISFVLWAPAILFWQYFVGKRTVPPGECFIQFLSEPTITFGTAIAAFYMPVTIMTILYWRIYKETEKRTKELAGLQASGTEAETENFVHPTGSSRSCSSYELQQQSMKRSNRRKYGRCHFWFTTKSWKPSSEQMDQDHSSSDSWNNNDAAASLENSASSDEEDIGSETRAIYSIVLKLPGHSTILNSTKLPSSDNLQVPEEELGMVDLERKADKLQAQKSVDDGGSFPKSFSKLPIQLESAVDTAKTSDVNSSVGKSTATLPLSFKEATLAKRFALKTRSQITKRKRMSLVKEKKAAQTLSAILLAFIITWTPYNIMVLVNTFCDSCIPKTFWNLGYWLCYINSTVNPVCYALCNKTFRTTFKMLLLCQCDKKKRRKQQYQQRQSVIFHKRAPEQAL
Experimental: as §3, §4, §5

[9] = target: T3, human FMO1 Supersomes (Homo sapiens, UniProt Q01740); assay: Metabolism by flavin monoxygenase 1 (FMO1) Supersomes; assay type: in vitro ADME; conditions: after 6 hours (FIG. 2)
T3 construct: purchased BD Biosciences 456241
T3 sequence (Q01740 1-532): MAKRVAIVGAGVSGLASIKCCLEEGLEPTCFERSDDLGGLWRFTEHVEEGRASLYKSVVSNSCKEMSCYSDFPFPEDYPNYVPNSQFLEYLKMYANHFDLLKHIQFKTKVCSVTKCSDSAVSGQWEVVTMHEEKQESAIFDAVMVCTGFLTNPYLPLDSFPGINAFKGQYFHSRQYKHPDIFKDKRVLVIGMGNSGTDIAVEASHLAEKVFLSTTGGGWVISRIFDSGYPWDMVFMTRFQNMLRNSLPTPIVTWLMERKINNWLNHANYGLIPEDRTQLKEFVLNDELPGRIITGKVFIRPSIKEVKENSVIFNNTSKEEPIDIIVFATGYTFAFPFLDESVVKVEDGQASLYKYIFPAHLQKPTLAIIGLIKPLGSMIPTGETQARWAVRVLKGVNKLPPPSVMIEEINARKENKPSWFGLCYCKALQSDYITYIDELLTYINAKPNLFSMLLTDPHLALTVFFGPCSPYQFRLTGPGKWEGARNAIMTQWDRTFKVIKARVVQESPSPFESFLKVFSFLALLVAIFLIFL
Experimental: […] Aliquots were removed every 10 minutes, and 1% formic acid was added to halt the reaction. Samples were centrifuged, filtered through 0.2 micron spinfilter and the amount of each compound in the supernatants was quantitated using LC/MS/MS.

[10] = system: anesthetized normal rats; assay: In vivo measurement of salivation; parameters: species or system Long Evans Hooded rats; conditions: rats
Experimental: as §2, with “Suitable doses of test compounds or drug substances were administered using standard techniques to Long Evans Hooded rats weighing 225 to 350 grams, or CD-1 mice weighing 30 to 50 grams, which had been anesthetized using 2-3.5%% of isoflurane in oxygen. The animals” for “The animals”

[11] = antagonist 0.03 mg/kg (FIGS. 8C, 8D)

Molecule: C[N+]1(C)CCC(OC(=O)C(O)(c2ccccc2)C2CCCC2)C1 (stereo not shown) [glycopyrrolate]
effect on increase in hippocampal inositol phosphate caused by Compound 3 [1]: without blocking the increase in hippocampal inositol phosphate
reduction of salivation caused by transdermal iontophoretic delivery of Compound 3 [2]: greatly reduced
block of increase in salivary gland inositol phosphate caused by Compound 3 [3, 11]: can block
inhibition of salivary gland inositol phosphate response to MCD-386 [3]: virtually completed inhibited

Brain Cmax (10 mg/kg po) 1 hr MCD-386 = 1.00 [4]: 0.82
Presence of metabolites (10 mg/kg po) [5]: No
Molecule: [2H]C([2H])(C)c1noc(C2CN=CNC2)n1 (stereo not shown) [Compound 6c, 3-(1,1-d2-ethyl)-5-(1,4,5,6-tetrahydropyrimidin-5-yl)-1,2,4-oxadiazole hydrochloride]

Papp ([6]; PAMPA): 16.3 ×10⁻⁶ cm/s
huM1/A9L Smax [7]: 81%
huM1/A9L ED50 relative to CCh* [7]: − (− potency <0.5-0.1x CCh)
huM3/A9L Smax [8]: 70%
huM3/A9L ED50 relative to CCh* [8]: −− (−− potency <0.1x CCh)
Molecule: Cc1noc(C2(F)CCCNC2)n1 (stereo not shown) [Compound 35, 5-(3-fluoropiperidin-3-yl)-3-methyl-1,2,4-oxadiazole]

Brain Cmax (10 mg/kg po) 1 hr MCD-386 = 1.00 [4]: 0.61
Presence of metabolites (10 mg/kg po) [5]: No
Molecule: [2H]C([2H])([2H])C([2H])([2H])c1noc(C2CN=CNC2)n1 (stereo not shown) [Compound 2c, 3-(1,1,2,2,2-d5-ethyl)-5-(1,4,5,6-tetrahydropyrimidin-5-yl)-1,2,4-oxadiazole hydrochloride]

Molecule: 3-methyl-5-(quinuclidin-3-yl)-1,2,4-oxadiazole [Compound 37]
PAMPA Permeability Coefficient (×10^6) ([6]; Table 14): 3.02 ×10^6
selectivity between M1 and M3 receptors ([7]; huM1 versus huM3 A9L cells): essentially non-selective between M1 and M3 receptors
huM1/A9L Smax [7]: 50-100%
huM1/A9L ED50 relative to CCh* [7]: ++ (++ potency >10x CCh)
huM3/A9L Smax [8]: 50-100%
huM3/A9L ED50 relative to CCh* [8]: ++ (++ potency >10x CCh)
extent of metabolism in FMO Supersomes (in words) [9]: almost completely metabolized

Molecule: CC(C)[N+](C)(CCOC(=O)C1c2ccccc2Oc2ccccc21)C(C)C [propantheline]
effect on increase in hippocampal inositol phosphate caused by Compound 3 [1]: without blocking the increase in hippocampal inositol phosphate
reduction of salivation caused by transdermal iontophoretic delivery of Compound 3 [2]: greatly reduced
block of increase in salivary gland inositol phosphate caused by Compound 3 [3, 11]: can block
inhibition of salivary gland inositol phosphate response to MCD-386 [3]: virtually completed inhibited

Molecule: C[N+]1(C)[C@@H]2C[C@@H](OC(=O)[C@H](CO)c3ccccc3)C[C@H]1[C@@H]1O[C@@H]12 [NMS]
effect on increase in inositol phosphate in the hippocampus caused by Compound 3 ([1]; antagonist 0.1 mg/kg): does not inhibit
reduction of salivation caused by transdermal iontophoretic delivery of Compound 3 [2]: greatly reduced
block of increase in salivary gland inositol phosphate caused by Compound 3 ([3]; antagonist 0.003 mg/kg): some breakthrough activation
block of increase in salivary gland inositol phosphate caused by Compound 3 ([3]; antagonist 0.03 mg/kg to 0.01 mg/kg): nearly as effective as 0.1 mg/kg
block of increase in salivary gland inositol phosphate caused by Compound 3 ([3]; antagonist 0.1 mg/kg (FIGS. 8A, 8B)): completely block
decrease in salivation caused by Compound 3 ([10]; Compound 3 0.3 mg/kg (FIG. 12)): dose-dependent decrease in salivation
reduction in salivation caused by MCD-386 ([10]; MCD-386 1 mg/kg (FIG. 13)): dose-dependent reduction
